Reference: patent US5037812A, “Tumor cell growth-inhibiting pharmaceutical compositions containing phosphino-hydrocarbon-gold, silver or copper complexes” (priority 1986, dated 1991)
Values joined by “and” are separate entries in the source; they are usually repeats but may differ in a detail not shown here. Equal entries are not always repeated.

How the values were obtained:
P388 leukemia = test: ip P388 leukemia mouse model; format: in vivo, mice (B6D2F1); settings: for MTD (maximally tolerated dose): B6D2F female mice, ip qDX5; for ILS max (maximum increase in lifespan): mice bearing ip P388 leukemia, ip days 1-5 at MTD, slash-separated figures are separate experiments
Description: This tumor system is widely accepted as an antitumor agent screening tool because it is sensitive to virtually all of the clinically active antineoplastic agents; quantitative and reproducible; amenable for large-scale screening; and predictive for activity in other animal tumor models.
10^6 P388 leukemia cells are inoculated ip in B6D2F1 mice. Twenty-four hours later, if the tumor inoculum proves to be free of bacterial contamination (as determined by 24 hours incubation in thioglycollate broth), animals are randomized into groups of 6 and housed in shoebox cages. […] An equal volume of saline or water is added; if the drug comes out of solution an equal volume of Cremophor (polyethoxylated castor oil) is added and then saline or water, as to a concentration such that the desired dose is delivered in 0.5 ml. The final concentration of DMA, ethanol or Cremophor is 10 percent. Dilutions for lower doses are made with saline or water so that there is a decreasing proportion of organic solvents in the vehicle with decreasing dosage. […] Formulations are prepared immediately prior to injection. The Formula (I) and Formula (II) compounds are administered ip on Days 1 through 5 (i.e., treatment is initiated 24 hrs after tumor inoculation). Each experiment includes three groups of 6 animals as untreated controls and animals treated with a positive control, cisplatin, at two dose levels. Animals are weighed as a group on Days 1, 5 and 9 and average weight change (Δwt.) is used as a reflection of toxicity. Each experiment also includes an inoculum titration--groups of 8 mice inoculated ip with 10^5 to 10^0 P388 leukemia cells. The titration is used as a quality control check for the performance of the tumor model. Animals are monitored daily for mortality and experiments are terminated after 45 days. The endpoint is median survival time (MST) and increase in lifespan (ILS) which is the percentage of increase in MST relative to untreated controls.

[1] = solubility in 9:1 water:ethanol (HPLC of filtrate); settings: stirred 15 hours, 0.45 μm PTFE filter, HPLC
Description: Such solubility was determined as follows: The compound in question was dissolved or suspended in absolute ethanol (250 mg solid per 1.0 ml ethanol). To the resulting solution or suspension, water (9.0 times the volume of ethanol) was added. This suspension was stirred vigorously for 15 hours, then filtered through a 0.45 μm poly(tetrafluoroethylene) (PTFE) filter. […] The HPLC system was as follows:
Column PLRP-S, 5μm, obtained from Polymer Laboratories, Inc.
Mobile Phase 9:1 acetonitrile:0.1% tetra-n-butylammonium hydrogen sulfate (50° C., 1.0 ml-min-^-1)
Detection Ultraviolet (250 nm)

B16 melanoma = test: in vivo ip B16 melanoma assay; parameters: species or system mice (B6D2F1); settings: ip qDX10
Description: Daily treatment is begun 24 hours after tumor implantation and is continued daily for ten (10) days. The route of drug administration is ip. The mice are monitored daily for survival for sixty (60) days. Antitumor activity is assessed by prolongation of median survival time. An ILS of ≥25% indicates activity in this tumor model.
^(b) maximally tolerated dose for B6D2F1 mice on an ip qDX10
^(c) maximum increase in lifespan produced in mice bearing ip B16

| Molecule | MTD (maximally tolerated dose) (P388 leukemia) [mg/kg] | ILS max (maximum increase in lifespan) (P388 leukemia) | Solubility in 9:1 Water:Ethanol [1] [µg/mL] | MTD (maximally tolerated dose) (B16 melanoma; B6D2F1 mice) [mg/kg] | ILS (maximum increase in lifespan) (B16 melanoma; mice bearing ip B16 melanoma, slash-separated figures are separate experiments) |
| --- | --- | --- | --- | --- | --- |
| CS(=O)(=O)[O-].[Au+].c1ccc(P(CCP(c2ccccc2)c2ccccc2)c2ccccc2)cc1.c1ccc(P(CCP(c2ccccc2)c2ccccc2)c2ccccc2)cc1 [compound 14, Bis[1,2-bis(diphenylphosphino)ethane]gold(I) methanesulfonate] | 2 | 81 ± 17% | 30 |  |  |
| [Cl-].[Cu+].c1ccc(P(CCCP(c2ccccc2)c2ccccc2)c2ccccc2)cc1.c1ccc(P(CCCP(c2ccccc2)c2ccccc2)c2ccccc2)cc1 [compound 12, Bis[1,3-bis(diphenylphosphino)propane]Copper(I) Chloride] | 2 | 92 ± 15% |  | 1 | 32% and 47% |
| O=C([O-])CO.[Au+].c1ccc(P(CCP(c2ccccc2)c2ccccc2)c2ccccc2)cc1.c1ccc(P(CCP(c2ccccc2)c2ccccc2)c2ccccc2)cc1 [compound 23, Bis[1,2-bis(diphenylphosphino)ethane]gold(I) hydroxyacetate] | 2 | 55% and 75% | 8600 |  |  |
| CC(=O)C(=O)[O-].[Au+].c1ccc(P(CCP(c2ccccc2)c2ccccc2)c2ccccc2)cc1.c1ccc(P(CCP(c2ccccc2)c2ccccc2)c2ccccc2)cc1 [compound 21, Bis[1,2-bis(diphenylphosphino)ethane]gold(I) 2-oxopropanoate] | 2 | 60% and 50% | 200 |  |  |
| O=[N+]([O-])[O-].[Au+].c1ccc(P(CCP(c2ccccc2)c2ccccc2)c2ccccc2)cc1.c1ccc(P(CCP(c2ccccc2)c2ccccc2)c2ccccc2)cc1 [compound 5, Bis[1,2-bis(diphenylphosphino)ethane]Gold(I) Nitrate] | 3 | 90 ± 17% | 30 |  |  |
| Fc1cccc(P(CCP(c2cccc(F)c2)c2cccc(F)c2)c2cccc(F)c2)c1.Fc1cccc(P(CCP(c2cccc(F)c2)c2cccc(F)c2)c2cccc(F)c2)c1.[Au+].[Cl-] [compound 7, Bis[1,2-bis[bis(. Phosphino]ethane]Gold(I) Chloride] |  | 45% and 55% |  |  |  |
| Bis[1,2-bis[bis(4-fluorophenyl)phosphino]ethane Gold(I) Chloride [compound 6] | 3 | 55% and 50% |  |  |  |
| Bis[1,2-bis(diethylphosphino)ethane]Silver(I) Nitrate [compound 11] | 0.5 | 50% and 40% |  |  |  |
| O=S(=O)([O-])C(F)(F)F.[Au+].c1ccc(P(CCP(c2ccccc2)c2ccccc2)c2ccccc2)cc1.c1ccc(P(CCP(c2ccccc2)c2ccccc2)c2ccccc2)cc1 [compound 20, Bis[1,2-bis(diphenylphosphino)ethane]gold(I) trifluoromethanesulfonate] | 2 | 63% and 75% | 20 |  |  |
| CCP(CC)CCP(c1ccccc1)c1ccccc1.CCP(CC)CCP(c1ccccc1)c1ccccc1.[Cl-].[Cu+] [compound 9] | 1.5 | 48% and 45% |  |  |  |
| O=C([O-])CCCO.[Au+].c1ccc(P(CCP(c2ccccc2)c2ccccc2)c2ccccc2)cc1.c1ccc(P(CCP(c2ccccc2)c2ccccc2)c2ccccc2)cc1 [compound 22, Bis[1,2-(diphenylphosphino)ethane]gold(I) 4-hydroxybutanoate] | 2 | 65% and 70% | 2900 |  |  |
| CCP(CC)CCP(CC)CC.CCP(CC)CCP(CC)CC.F[P-](F)(F)(F)(F)F.[Au+] [compound 10, Bis[1,2-bis(diethylphosphino)ethane]Gold(I) Hexafluorophosphate] | 4 | 40% and 30% |  |  |  |
